Marks after values point to notes of the source that are not given here.
Experiment: Thermal stability determination by thermogravimetric analysis (TGA)
Format: physicochemical
Conditions: for temperature at which it starts to decompose: heated neat; for Inflection point / T5% onset temperature: not supported/neat; for Inflection point: TGA 25-800° C., 5° C./min, under air; for T5% onset temperature: TGA 5° C./min, under nitrogen

Row | Compound | Inflection point [°C] | further results
1 | Nc1nc2c(ncn2COCCO)c(=O)[nH]1 [Acyclovir, reference compound] | 249 | temperature at which it starts to decompose: around 249 °C
2 | CC(C)Cc1ccc(C(C)C(=O)O)cc1 (stereo not shown) [Ibuprofene, reference compound] |  | temperature at which it starts to decompose: around 150 °C; T5% onset temperature: 155* ° C.
3 | CC(C)Cc1ccc(C(C)C(=O)O)cc1 (stereo not shown) [Tetrabutylphosphonium Ibuprofenate [7]] |  | T5% onset temperature: 236* ° C.
4 | O=C(O)CNCP(=O)(O)O [Tetraethylammonium Glyphosate [6], Tetraethylammonium Glyphosate] | 150 | 
5 | Nc1nc2c(ncn2COCCO)c(=O)[nH]1 [Trimethylhexadecylammonium acyclovir [3]] [Trimethylhexadecylammonium Aciclovir] | 189 | 
6 | CC(C)Cc1ccc(C(C)C(=O)O)cc1.CCN(CC)CC(=O)Nc1c(C)cccc1C [[8], Lidocainium Ibuprofenate] |  | T5%onset (neat compound, given with the synthesis example): 177 °C
7 | Itraconazolium Dioctylsulfosuccinate [Itraconazolium Dioctylsulfosuccinate [5]] | 257 | 
8 | Tributylmethylammonium Acyclovir [Tributylmethylammonium Acyclovir [2]] | 203 | 
